Test results as given in PubChem BioAssay (NCI).
“And” between values parts separate entries of the source, which are not always exact repeats. Equal values may be shown once.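 Briefly, cells in 96-well plates were exposed to five compound concentrations for 48 h, and endpoints were estimated by linear interpolation. The concentration for 50% growth inhibition is given as GI50. TGI: concentration producing complete growth inhibition.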

Columns and labels:
Experiment in all cases: NCI tumour cell line growth inhibition, 48 h
KM20L2 colon = tested on: KM20L2 colon
XF 498 CNS = tested on: XF 498 CNS
DLD-1 colon = tested on: DLD-1 colon
LXFL 529 NSCLC = tested on: LXFL 529 NSCLC
DMS 273 small cell lung = tested on: DMS 273 small cell lung
RXF-631 renal = tested on: RXF-631 renal
MCF7 breast = tested on: MCF7 breast
BT-549 breast = tested on: BT-549 breast
MDA-N = tested on: MDA-N
P388/ADR leukemia = tested on: P388/ADR leukemia
P388 leukemia = tested on: P388 leukemia
SN12K1 renal = tested on: SN12K1 renal

Compound | TGI (KM20L2 colon) | TGI (XF 498 CNS) | TGI (DLD-1 colon) | TGI (LXFL 529 NSCLC) | TGI (DMS 273 small cell lung) | TGI (MCF7 breast) | TGI (BT-549 breast) | TGI (MDA-N) | also measured
O=c1c2ccccc2[nH]c(=S)n1-c1ccc(Br)cc1 | > 100 µM | > 100 µM | > 100 µM | > 100 µM |  |  |  |  | 
Cn1c2c(c3ccccc31)CCN(CCCCN1CCc3c(n(C)c4ccccc34)C1=O)C2 | > 100 µM | > 100 µM | > 100 µM | > 100 µM | > 100 µM |  |  |  | TGI (RXF-631 renal): > 100 µM
Cc1cc(C)nc(NS(=O)(=O)c2ccc(Nc3c4ccccc4nc4c(C(=O)Nc5ccc(S(=O)(=O)N=C(N)N)cc5)ccc(Cl)c34)cc2)n1 | > 100 µM | 56.7 µM | > 100 µM | 72.4 µM | > 100 µM |  |  |  | 
O=P(O)(CCP(=O)(O)c1ccccc1)c1ccccc1 |  |  |  |  |  | > 100 µM | > 100 µM | > 100 µM | 
O=[N+]([O-])c1ccc(C(c2c[nH]c3ccccc23)c2c[nH]c3ccccc23)cc1 |  |  |  |  |  | 7.4 µM | 14.3 µM | 27.5 µM | 
O=C(c1ccccc1)C(c1ccccc1)C1(O)C(=O)Nc2c(Cl)cc(Cl)cc21 (centres undefined) | > 100 µM | > 100 µM | 37.5 µM | 25.7 µM | 83.2 µM |  |  |  | TGI (RXF-631 renal): 38 µM
N#Cc1c(-c2nc3ccccc3s2)c(=O)oc2cc(O)ccc12 |  |  |  |  |  | > 100 µM | 62.8 µM | > 100 µM | 
CC(=O)n1c(COS(C)(=O)=O)nc2ccccc21 |  |  |  |  |  | > 100 µM | > 100 µM | > 100 µM | 
CN1CC[C@@H](c2c(O)cc(O)c3c(=O)cc(-c4ccccc4Cl)oc23)[C@@H](O)C1 |  | 0.533 µM | > 100 µM | > 68.6 µM | 0.32 µM | > 77.4 µM |  | 0.349 µM and 0.148 µM | GI50 (MCF7 breast): 0.0629 µM and 0.046 µM; GI50 (BT-549 breast): 0.171 µM and 0.178 µM; GI50 (MDA-N): 0.124 µM and 0.0494 µM
Cc1ccc(OCC(=O)N2N=C(c3ccccc3)CC2(O)c2ccccc2)cc1 (centres undefined) | 41.3 µM | > 100 µM | > 100 µM | > 100 µM | 40.2 µM |  |  |  | TGI (RXF-631 renal): > 100 µM
O=C(c1ccccc1)C(C(=O)c1ccccc1)C1(O)C(=O)c2ccccc2C1=O | > 100 µM | > 100 µM |  | > 100 µM | > 100 µM |  |  |  | 
O=C1C(=O)N(C(=O)c2ccc(Cl)c(Cl)c2)c2ccccc21 |  |  | > 100 µM | > 100 µM | > 100 µM |  |  |  | TGI (RXF-631 renal): > 100 µM
COC1=CC(=O)c2ccccc2C1(CCC=C(C)C)C1=NC(C)(C)CO1 (centres undefined) | > 100 µM |  | > 100 µM | > 100 µM | > 100 µM |  |  |  | 
O=C(O)c1c(-c2cccc3ccccc23)sc(-c2cccc3ccccc23)c1C(=O)O | > 100 µM | > 100 µM | > 100 µM | > 100 µM | > 100 µM |  |  |  | 
COc1cccc(C2CC(C)(N3CCCC3)Oc3cc4c(cc32)OCO4)c1O (centres undefined) |  |  |  |  |  | > 91.2 µM | 87.7 µM | 10.7 µM | 
CC1=C(C(=O)Nc2ccccc2C)C(c2ccccc2)C(C(=O)Nc2ccccc2C)=C(C)N1 | > 100 µM | 83.2 µM | > 100 µM | > 100 µM | > 100 µM |  |  |  | 
CCOC/N=C(/N)NC#N | > 100 µM | > 100 µM | > 100 µM | > 100 µM | > 100 µM |  |  |  | 
CC[C@H](C)N(CCN)C(=O)c1cc2ccccc2c(-c2ccccc2Cl)n1 | 26.6 µM |  |  | 10.4 µM | 27.6 µM |  |  |  | 
Nc1ccn(CCOC(=O)c2ccccc2)c(=O)n1 | > 100 µM |  | > 100 µM | > 100 µM | > 100 µM |  |  |  | TGI (RXF-631 renal): > 100 µM
C[C@@H]1C[C@@H](O)[C@]2(O)O[C@@H]3C[C@@]4(C=O)[C@@H](CC[C@@H]5[C@@H]4CC[C@]4(C)[C@@H](C6=CC(=O)OC6)CC[C@]54O)C[C@H]3O[C@@H]2O1 | 0.0631 µM and 0.107 µM | 0.0571 µM and 0.0493 µM | 0.0375 µM and 0.033 µM | 0.0164 µM and 0.0576 µM | 0.0724 µM and 0.0123 µM | 0.16 µM | 0.179 µM | 0.189 µM | GI50 (KM20L2 colon): 0.0218 µM; GI50 (XF 498 CNS): 0.0206 µM; GI50 (DLD-1 colon): 0.0053 µM
COc1ccc(C(=O)/C(Br)=C/C(=O)O)cc1 | 185 µM | 16 µM | 73.5 µM |  | 26.3 µM | 44.5 µM and 59.9 µM | 96.4 µM and 406 µM | 209 µM and 153 µM | GI50 (MCF7 breast): 7.41 µM; TGI (P388/ADR leukemia): 108 µM; TGI (P388 leukemia): 53.7 µM; GI50 (BT-549 breast): 242 µM; GI50 (MDA-N): 47.4 µM; TGI (SN12K1 renal): 22.6 µM
CCc1cccc(C(C)C)c1NC(=O)C(=O)C(Cc1nc2ccccc2[nH]c1=O)C(=O)OC (centres undefined) | > 100 µM | > 100 µM | > 100 µM | > 100 µM | > 100 µM |  |  |  | 
O=C(CNc1nncs1)NO | > 100 µM |  | > 100 µM | > 100 µM | > 100 µM |  |  |  | 
